Patent US8653043B2, “Enhanced neoglycosides through neoglycosylation and methods of use thereof” (Wisconsin Alumni Research Foundation, priority 2009, dated 2014)

How the values were obtained:
human cancer cell lines = assay: Cytotoxicity assay (calcein AM / CellTiter-Glo) in carcinoma cell lines; assay type: cell-based; details: for cytotoxic potency compared to parent 1: in one or more cell lines, comparison with betulinic acid (1); for potency improvement of amide-linked versus ester-linked neoglycoside: ABA compound compared with ester analog bearing the same sugar; for improvement of cytotoxic activity over the parent natural product: versus parent 1, breast, colorectal, lung and prostate carcinoma lines
Procedure: The cytoxicity of the library members was assessed in seven human cancer cell lines representing a broad range of carcinomas including breast, colorectal, CNS, lung and prostate.
The cytoxicity of ABA1-5 was evaluated in human cell lines of breast, colorectal, lung and prostate carcinomas.
Testing was performed by the Keck-UWCCC Small Molecule Screening Facility (Madison, Wis.). Carcinoma cell lines were maintained and harvested as previously reported, along with compound handling and assay set up.^21 Cells were plated in 50 μL volumes in 384-well clear bottom tissue culture plates. Serial dilutions of 30 mM DMSO compound stock solutions were done in 96-well plates using a BioTek Precision XS liquid handler (Winooski, Vt.) to a concentration 100× greater than that of the most dilute assay. Final dilutions were performed in a 384-well plate in quadruplicate using a Beckman-Coulter Biomek FX liquid handler with a 384 channel pipetting head (Fullerton, Calif.) and were stored at −20° C. when not in use. Compounds were then added to the culture plates by the Biomek FX handler and were incubated at 37° C. for 72 h. The calcein AM reagent (acetoxymethyl ester; 30 μL, 10 μM) was then added, the cells were incubated for 30 m at 37° C., and plates were read for fluorescent emission (535 nm). Cell titer-glo reagent (15 μL; Promega Corp., Madison, Wis.) was added and the plates incubated for 10 m at room temperature with gentle agitation to lyse the cells. Each plate was reexamined for luminescence to verify inhibition. IC50 values for cytotoxicity were determined using XLift 4.2 as previously reported.^21

[1] = tested on: HIV-1 virus (IIIB strain); assay: Anti-HIV-1 cytoprotection (CPE) assay in CEM-SS cells; assay type: cell-based; details: 1 μM; HIV-1 IIIB-infected CEM-SS cells
Procedure: To assess the corresponding impact of differential glycosylation upon antiviral activity, the entire set of compounds was subsequently tested in a single dose (10 μM) anti-HIV-1 assay against CEM-SS cells (i.e., CD4+ T lymphocytes) infected with the IIIB strain of HIV-1. Compound efficacy was determined by the percent increase of cytoprotective effect (CPE), which is prevention of intercellular virus replication, over untreated HIV-1-infected cells.
Both cells and virus were mixed with compound (10 μM & 1 μM for ABA1-5 and […] for all others) in triplicate in 96-well plates and incubated for six days at 37° C. Compound cytoprotection and cytotoxicity were evaluated using MTS tetrazolium dye (Promega Corp., Madison, Wis.) as previously reported.^23 Each assay plate used the following controls: cells only, cells/virus, cells/compound, compound only. The reverse transcriptase inhibitor AZT and protease inhibitor Indinavir were included as positive controls.

Row | SMILES | cytotoxic potency compared to parent 1 (human cancer cell lines) | improvement of cytotoxic activity over the parent natural product (human cancer cell lines) [fold] | further results
1 | C=C(C)[C@@H]1CC[C@]2(C(=O)O)CC[C@]3(C)[C@H](CC[C@@H]4[C@@]5(C)CC[C@H](OC(=O)CN(OC)C6O[C@@H](C)[C@@H](O)[C@@H](O)[C@@H]6O)C(C)(C)[C@@H]5CC[C@]43C)[C@@H]12 (stereo partly drawn) [BA9, (3S)-O-(N-Methoxy-N-L-fucosylglycyl)betulinic acid] | equipotent | – | –
2 | C=C(C)[C@@H]1CC[C@]2(C(=O)O)CC[C@]3(C)[C@H](CCC4[C@@]5(C)CC[C@H](OC(=O)CNOC)C(C)(C)C5CC[C@]43C)C12 (stereo partly drawn) [compound 7, (3S)-O-(N-Methoxyglycyl)betulinic acid] | relatively similar potencies | – | –
3 | C=C(C)[C@@H]1CC[C@]2(C(=O)O)CC[C@]3(C)C(CCC4[C@@]5(C)CC[C@H](OC(=O)CN(OC)C6O[C@@H](C)[C@H](O)[C@@H](O)[C@H]6O)C(C)(C)C5CC[C@]43C)C12 (stereo partly drawn) [BA27] | – | – | IC50 (human cancer cell lines; ester-linked BA series, 72 h incubation, cell line not specified / at least one cell line): ≥ 25 µM
4 | C=C(C)[C@@H]1CC[C@]2(C(=O)O)CC[C@]3(C)[C@H](CC[C@@H]4[C@@]5(C)CC[C@H](NC(=O)CN(OC)C6OC[C@H](O)[C@H](O)[C@@H]6O)C(C)(C)[C@@H]5CC[C@]43C)[C@@H]12 (stereo partly drawn) [ABA4, (3S)-N-(N′-Methoxy-N′-L-ribosylglycyl)betulinic acid] | – | ~2 | potency improvement of amide-linked versus ester-linked neoglycoside (human cancer cell lines): ≥ 6 fold
5 | C=C(C)[C@@H]1CC[C@]2(C(=O)O)CC[C@]3(C)C(CCC4[C@@]5(C)CC[C@H](OC(=O)CN(OC)[C@H]6OC[C@H](O)[C@@H](O)[C@@H]6O)C(C)(C)C5CC[C@]43C)C12 (stereo partly drawn) [BA32, (3S)-O-(N-Methoxy-N-β-L-xylosylglycyl)betulinic acid] | equipotent | – | –
6 | C=C(C)[C@@H]1CC[C@]2(C(=O)O)CC[C@]3(C)[C@H](CC[C@@H]4[C@@]5(C)CC[C@H](NC(=O)CN(OC)C6OC[C@@H](O)[C@H](O)[C@H]6O)C(C)(C)[C@@H]5CC[C@]43C)[C@@H]12 (stereo partly drawn) [ABA5, (3S)-N-(N′-Methoxy-N′-D-xylosylglycyl)betulinic acid] | – | ~2 | potency improvement of amide-linked versus ester-linked neoglycoside (human cancer cell lines): ≤ 2 fold
7 | C=C(C)[C@@H]1CC[C@]2(C(=O)O)CC[C@]3(C)[C@H](CC[C@@H]4[C@@]5(C)CC[C@H](NC(=O)CN(OC)[C@@H]6O[C@H](CO)[C@@H](O)[C@@H](O)[C@@H]6O)C(C)(C)[C@@H]5CC[C@]43C)[C@@H]12 [ABA1, (3S)-N-(N′-Methoxy-N′-β-D-altrosylglycyl)betulinic acid] | – | ~2 | –
8 | C=C(C)[C@@H]1CC[C@]2(C(=O)O)CC[C@]3(C)[C@H](CC[C@@H]4[C@@]5(C)CC[C@H](OC(=O)CN(OC)[C@@H]6O[C@H](CO)[C@@H](O)[C@@H](O)[C@H]6O)C(C)(C)[C@@H]5CC[C@]43C)[C@@H]12 [BA1, (3S)-O-(N-Methoxy-N-β-D-allosylglycyl)betulinic acid] | equipotent | – | –
9 | C=C(C)[C@@H]1CC[C@]2(C(=O)O)CC[C@]3(C)[C@H](CC[C@@H]4[C@@]5(C)CC[C@H](NC(=O)CNOC)C(C)(C)[C@@H]5CC[C@]43C)[C@@H]12 [compound 10, (3S)-N-(N′-Methoxyglycyl)aminobetulinic acid] | relatively similar potencies | – | increase in CPE [1]: no noticeable activity
